According to patent publication US8309610B2, “Crystalline forms of (1RS,3RS,6RS)-6-dimethylaminomethyl-1-(3-methoxyphenyl)cyclohexane-1,3-diol hydrochloride” (priority 2005, dated 2012):
Counter-ions that a name gives are not always drawn.

Legend:
Format in all cases: physicochemical
[1] = solubility in water
[2] = stability in organic media; details: chloroform, dioxane, ethyl acetate, hexane, tetrahydrofuran, toluene; room temperature or higher (e.g. up to 40° C.)
[3] = water absorption / hygroscopicity
[4] = storage in humidity chamber, polymorph conversion
From the text: Crystalline form B in an open glas container is stored in a humidity chamber at relative humidity of 35% and room temperature. Samples were taken prior to storage and after 4, 14, 19 and 21 days of storage under these conditions.
Crystalline form B in an open glas container is stored in a humidity chamber at relative humidity of 60% and room temperature. Samples were taken prior to storage and after 7, 17 and 22 days of storage under these conditions.
Crystalline form B in an open glas container is stored in a humidity chamber at relative humidity of 75% and room temperature. Samples were taken prior to storage and after 6, 13 and 23 days of storage under these conditions.

[5] = variable temperature X-ray powder diffraction experiment; details: 90° C., after half an hour
Procedure: Variable temperature Powder Diffraction Data Collection was carried out on a Shimadzu XRD-6000X-ray powder diffractometer using Cu Kα radiation. The instrument is equipped with a fine focus X-ray tube. The tube voltage and amperage were set to 40 kV and 40 mA, respectively. The divergence and scattering slits were set at 1° and the receiving slit was set at 0.15 mm. Diffracted radiation was detected by a NaI scintillation detector. A theta-two theta continuous scan at 3°/min (0.4 sec/0.02° step) from 2,5 to 40° 2 θ was used. A silicon standard was analyzed each day to check the instrument alignment. The instrument was equipped with an Anton Paar HTK 1200 high temperature stage and a ceramic sample holder

With `COc1cccc([C@@]2(O)C[C@H](O)CC[C@@H]2CN(C)C)c1` (racemic) [form A, (1RS,3RS,6RS)-6-Dimethylaminomethyl-1-(3-methoxy-phenyl)cyclohexane-1,3-diol hydrochloride] the solubility in water [1] was “very high solubility in water”, the “stability in organic media” value [2] was “stable in organic media” and the “resistance to water absorption” value ([3]; up to 60% relative humidity, room temperature, at least up to three weeks) was “resistant to water absorption”.
In the case of `COc1cccc([C@@]2(O)C[C@H](O)CC[C@@H]2CN(C)C)c1` (racemic) [form B, (1RS,3RS,6RS)-6-Dimethylaminomethyl-1-(3-methoxy-phenyl)cyclohexane-1,3-diol hydrochloride], the “crystalline form found after storage” value [4] is reported as “crystalline form B only”, the “conversion to another polymorph under high humidity” value ([4]; high humidity) is reported as “not converted to another polymorph” and the “solid form conversion on heating” value [5] is reported as “converted to form E”.
With `COc1cccc([C@@]2(O)C[C@H](O)CC[C@@H]2CN(C)C)c1` (racemic) [form C, (1RS,3RS,6RS)-6-Dimethylaminomethyl-1-(3-methoxy-phenyl)cyclohexane-1,3-diol hydrochloride] the hygroscopicity ([3]; compared with all known polymorphic forms) was “lowest hygroscopicity of all known polymorphic forms”.
